# Data published in patent US20050070554A1, “Substituted heterocyclic compounds and methods of use” (Amgen Inc., priority 2003, published 2005).
# Like-named read-outs stand apart in the source and are kept apart here.
# Biological target: T1, LCK (Homo sapiens, UniProt P06239)
# T1 construct: LCK KD GST (225-509); GST
# Assay: LCK-Homogeneous Time Resolved Fluorescent (HTRF) Kinase Assay
# Assay type: biochemical
# Experimental: LCK-Homogeneous Time Resolved Fluorescent (HTRF) Kinase Assay:
# The LCK HTRF assay begins with LCK in the presence of ATP phosphorylating the biotinylated peptide Gastrin. The reaction incubates for 90 min. To quench the assay detection reagents are added which both stop the reaction by diluting out the enzyme and chelating the metals due to the presence of EDTA. Once the detection reagents are added the assay incubates for 30 min to allow for equilibration of the detection reagents.
# Buffer conditions are as follows: 50 mM HEPES pH 7.5, 50 mM NaCl, 20 mM MgCl, 5 mM MnCl, 2 mM DTT, 0.05% BSA.
# The assay is quenched and stopped with 160 μL of detection reagent. Detection reagents are as follows: Buffer made of 50 mM Tris, pH 7.5, 100 mM NaCl, 3 mM EDTA, 0.05% BSA, 0.1% Tween20.
# The assay plate is read in either a Discovery or a RubyStar.
# [1] = read-out: activity in the LCK-HTRF Kinase Assay
# T1 sequence (P06239 225-509): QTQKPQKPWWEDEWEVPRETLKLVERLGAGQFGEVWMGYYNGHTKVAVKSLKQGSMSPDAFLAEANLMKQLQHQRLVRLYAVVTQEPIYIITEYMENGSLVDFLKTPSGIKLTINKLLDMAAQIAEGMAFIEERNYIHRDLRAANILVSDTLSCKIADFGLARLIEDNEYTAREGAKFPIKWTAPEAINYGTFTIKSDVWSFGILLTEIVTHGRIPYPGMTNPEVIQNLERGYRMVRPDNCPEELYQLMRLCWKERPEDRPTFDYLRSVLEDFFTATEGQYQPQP
smiles,measurement,setting,value
"Cc1cccc(C)c1-n1c(=O)c2cnc(Nc3ccc(OCCNC(C)C)cc3)nc2n2c3ccccc3nc12 [No. 56, 6-(2,6-dimethylphenyl)-2-((4-((2-((1-methylethyl)-amino)ethyl)oxy)phenyl)amino)pyrimido[5′,4′:5,6]-pyrimido[1,2-a]benzimidazol-5(6H)-one]",IC50,[1],< 1000 nM
"COc1ccc(-n2c(=O)c3cnc(Nc4ccc(N5CCN(C)CC5)cc4)nc3n3c4ccccc4nc23)cc1 [No. 57, 6-(4-(methyloxy)phenyl)-2-((4-(4-methyl-1-piperazinyl)phenyl)amino)pyrimido[5′,4′:5,6]-pyrimido[1,2-a]benzimidazol-5(6H)-one]",IC50,[1],< 1000 nM
"Cc1cccc(C)c1N1C(=O)c2cnc(Nc3ccc(N4CCN(C)CC4)cc3)nc2N2CCN=C21 [No. 58, 6-(2,6-dimethylphenyl)-2-((4-(4-methyl-1-piperazinyl)phenyl)amino)-8,9-dihydroimidazo[1,2-a]pyrimido[5,4-e]pyrimidin-5(6H)-one]",IC50,[1],< 1000 nM
"Cc1cccc(C)c1-n1c(=O)c2cnc(Nc3ccc(OCCN4CCCCC4)c(Cl)c3)nc2n2c3ccccc3nc12 [No. 59, 2-((3-chloro-4-((2-(1-piperidinyl)ethyl)oxy)phenyl)-amino)-6-(2,6-dimethylphenyl)pyrimido[5′,4′:5,6]-pyrimido[1,2-a]benzimidazol-5(6H)-one]",IC50,[1],< 1000 nM
"C[C@@H](c1ccccc1)n1c(=O)c2cnc(Nc3ccc(N4CCN(C)CC4)cc3)nc2n2c3ccccc3nc12 [No. 60, 2-((4-(4-methyl-1-piperazinyl)phenyl)amino)-6-((1S)-1-phenylethyl)pyrimido[5′,4′:5,6]pyrimido[1,2-a]-benzimidazol-5(6H)-one]",IC50,[1],< 1000 nM
"Cc1cccc(C)c1-n1c(=O)c2cnc(Nc3ccc(OCCN4CCN(C(C)C)CC4)c(F)c3)nc2n2c3ccccc3nc12 [No. 61, 6-(2,6-dimethylphenyl)-2-((3-fluoro-4-((2-(4-(1-methylethyl)-1-piperazinyl)ethyl)oxy)phenyl)amino)-pyrimido[5′,4′:5,6]pyrimido[1,2-a]benzimidazol-5(6H)-one]",IC50,[1],< 1000 nM
"COc1cc(Nc2ncc3c(=O)n(-c4c(C)cccc4C)c4nc5ccccc5n4c3n2)ccc1OCCN1CCN(C(C)C)CC1 [No. 62, 6-(2,6-dimethylphenyl)-2-((4-((2-(4-(1-methylethyl)-1-piperazinyl)ethyl)oxy)-3-(methyloxy)phenyl)-amino)pyrimido[5′,4′:5,6]pyrimido[1,2-a]-benzimidazol-5(6H)-one]",IC50,[1],< 1000 nM
"COc1cc(Nc2ncc3c(=O)n(-c4c(C)cccc4C)c4nc5ccccc5n4c3n2)ccc1OCCCN1CCN(C(C)C)CC1 [No. 63, 6-(2,6-dimethylphenyl)-2-((4-((3-(4-(1-methylethyl)-1-piperazinyl)propyl)oxy)-3-(methyloxy)phenyl)-amino)pyrimido[5′,4′:5,6]pyrimido[1,2-a]-benzimidazol-5(6H)-one]",IC50,[1],< 1000 nM
"CCN(CC)CCN(C)C(=O)c1ccc(Nc2ncc3c(=O)n(-c4c(C)cccc4C)c4nc5ccccc5n4c3n2)cc1 [No. 64, N-(2-(diethylamino)ethyl)-4-((6-(2,6-dimethylphenyl)-5-oxo-5,6-dihydropyrimido[5′,4′:5,6]pyrimido[1,2-a]-benzimidazol-2-yl)amino)-N-methylbenzamide]",IC50,[1],< 1000 nM
"Cc1cccc(C)c1-n1c(=O)c2cnc(Nc3cccc(C(=O)NCCN(C)C)c3)nc2n2c3ccccc3nc12 [No. 65, N-(2-(dimethylamino)ethyl)-3-((6-(2,6-dimethylphenyl)-5-oxo-5,6-dihydropyrimido[5′,4′:5,6]pyrimido[1,2-a]-benzimidazol-2-yl)amino)benzamide]",IC50,[1],< 1000 nM
"CCN(CC)CCN(C)C(=O)c1cccc(Nc2ncc3c(=O)n(-c4c(C)cccc4C)c4nc5ccccc5n4c3n2)c1 [No. 66, N-(2-(diethylamino)ethyl)-3-((6-(2,6-dimethylphenyl)-5-oxo-5,6-dihydropyrimido[5′,4′:5,6]pyrimido[1,2-a]-benzimidazol-2-yl)amino)-N-methylbenzamide]",IC50,[1],< 1000 nM
"CN1CCN(c2ccc(Nc3ncc4c(=O)n(-c5c(Cl)cccc5Cl)c5nc6ccccc6n5c4n3)cc2)CC1 [No. 67, 6-(2,6-dichlorophenyl)-2-((4-(4-methyl-1-piperazinyl)phenyl)amino)pyrimido[5′,4′:5,6]-pyrimido[1,2-a]benzimidazol-5(6H)-one]",IC50,,< 1000 nM
"C[C@H](c1ccccc1)n1c(=O)c2cnc(Nc3ccc(N4CCN(C)CC4)cc3)nc2n2c3ccccc3nc12 [No. 68, 2-((4-(4-methyl-1-piperazinyl)phenyl)amino)-6-((1R)-1-phenylethyl)pyrimido[5′,4′:5,6]pyrimido[1,2-a]-benzimidazol-5(6H)-one]",IC50,[1],< 1000 nM
"Cc1cccc(C)c1-n1c(=O)c2cnc(Nc3ccc(N4CCN(CCO)CC4)cc3)nc2n2c3ccccc3nc12 [No. 69, 6-(2,6-dimethylphenyl)-2-((4-(4-(2-hydroxyethyl)-1-piperazinyl)phenyl)amino)pyrimido[5′,4′:5,6]-pyrimido[1,2-a]benzimidazol-5(6H)-one]",IC50,[1],< 1000 nM
"Cc1cccc(C)c1-n1c(=O)c2cnc(Nc3ccc(OCCN4CCN(C(C)C)CC4)c(Cl)c3)nc2n2c3ccccc3nc12 [No. 70, 2-((3-chloro-4-((2-(4-(1-methylethyl)-1-piperazinyl)-ethyl)oxy)phenyl)amino)-6-(2,6-dimethylphenyl)-pyrimido[5′,4′:5,6]pyrimido[1,2-a]benzimidazol-5(6H)-one]",IC50,[1],< 1000 nM
"Cc1cccc(C)c1-n1c(=O)c2cnc(Nc3ccc(C(=O)NCCN(C)C)cc3)nc2n2c3ccccc3nc12 [No. 71, N-(2-(dimethylamino)ethyl)-4-((6-(2,6-dimethylphenyl)-5-oxo-5,6-dihydropyrimido[5′,4′:5,6]pyrimido[1,2-a]-benzimidazol-2-yl)amino)benzamide]",IC50,[1],< 1000 nM
"Cc1cccc(C)c1-n1c(=O)c2cnc(Nc3ccc(OCCCN4CCN(C(C)C)CC4)c(F)c3)nc2n2c3ccccc3nc12 [No. 72, 6-(2,6-dimethylphenyl)-2-((3-fluoro-4-((3-(4-(1-methylethyl)-1-piperazinyl)propyl)oxy)phenyl)-amino)pyrimido[5′,4′:5,6]pyrimido[1,2-a]-benzimidazol-5(6H)-one]",IC50,[1],< 1000 nM
"Cc1cccc(C)c1-n1c(=O)c2cnc(Nc3ccc(OCCCN4CCN(C)CC4)c(Cl)c3)nc2n2c3ccccc3nc12 [No. 73, 2-((3-chloro-4-((3-(4-methyl-1-piperazinyl)propyl)-oxy)phenyl)amino)-6-(2,6-dimethylphenyl)-pyrimido[5′,4′:5,6]pyrimido[1,2-a]benzimidazol-5(6H)-one]",IC50,[1],< 1000 nM
"Cc1cccc(C)c1-n1c(=O)c2cnc(Nc3ccc(N4CCCN(C)CC4)cc3)nc2n2c3ccccc3nc12 [No. 74, 6-(2,6-dimethylphenyl)-2-((4-(4-methyl-1,4-diazepan-1-yl)phenyl)amino)pyrimido[5′,4′:5,6]pyrimido[1,2-a]benzimidazol-5(6H)-one]",IC50,[1],< 1000 nM
"Cc1cccc(C)c1-n1c(=O)c2cnc(Nc3ccc(N4CCCNCC4)cc3)nc2n2c3ccccc3nc12 [No. 75, 2-((4-(1,4-diazepan-1-yl)phenyl)amino)-6-(2,6-dimethylphenyl)pyrimido[5′,4′:5,6]pyrimido[1,2-a]-benzimidazol-5(6H)-one]",IC50,[1],< 1000 nM
"COc1ccc(Cl)cc1-n1c(=O)c2cnc(Nc3ccc(N4CCN(C)CC4)cc3)nc2n2c3ccccc3nc12 [No. 76, 6-(5-chloro-2-(methyloxy)phenyl)-2-((4-(4-methyl-1-piperazinyl)phenyl)amino)pyrimido[5′,4′:5,6]-pyrimido[1,2-a]benzimidazol-5(6H)-one]",IC50,,< 1000 nM
"CN1CCN(c2ccc(Nc3ncc4c(=O)n(-c5c(Cl)cc(Cl)cc5Cl)c5nc6ccccc6n5c4n3)cc2)CC1 [No. 77, 2-((4-(4-methyl-1-piperazinyl)phenyl)amino)-6-(2,4,6-trichlorophenyl)pyrimido[5′,4′:5,6]-pyrimido[1,2-a]benzimidazol-5(6H)-one]",IC50,,< 1000 nM
"Cc1ccc(-n2c(=O)c3cnc(Nc4ccc(N5CCN(C)CC5)cc4)nc3n3c4ccccc4nc23)cc1 [No. 78, 6-(4-methylphenyl)-2-((4-(4-methyl-1-piperazinyl)-phenyl)amino)pyrimido[5′,4′:5,6]pyrimido[1,2-a]-benzimidazol-5(6H)-one]",IC50,,< 1000 nM
"CN1CCN(c2ccc(Nc3ncc4c(=O)n(-c5ccccc5F)c5nc6ccccc6n5c4n3)cc2)CC1 [No. 79, 6-(2-fluorophenyl)-2-((4-(4-methyl-1-piperazinyl)-phenyl)amino)pyrimido[5′,4′:5,6]pyrimido[1,2-a]-benzimidazol-5(6H)-one]",IC50,[1],< 1000 nM
"Cc1cccc(-n2c(=O)c3cnc(Nc4ccc(N5CCN(C)CC5)cc4)nc3n3c4ccccc4nc23)c1 [No. 80, 6-(3-methylphenyl)-2-((4-(4-methyl-1-piperazinyl)-phenyl)amino)pyrimido[5′,4′:5,6]pyrimido[1,2-a]-benzimidazol-5(6H)-one]",IC50,,< 1000 nM
"COc1cccc(-n2c(=O)c3cnc(Nc4ccc(N5CCN(C)CC5)cc4)nc3n3c4ccccc4nc23)c1 [No. 81, 6-(3-(methyloxy)phenyl)-2-((4-(4-methyl-1-piperazinyl)phenyl)amino)pyrimido[5′,4′:5,6]-pyrimido[1,2-a]benzimidazol-5(6H)-one]",IC50,,< 1000 nM
"CN1CCN(c2ccc(Nc3ncc4c(=O)n(-c5cccc(F)c5)c5nc6ccccc6n5c4n3)cc2)CC1 [No. 83, 6-(3-fluorophenyl)-2-((4-(4-methyl-1-piperazinyl)-phenyl)amino)pyrimido[5′,4′:5,6]pyrimido[1,2-a]-benzimidazol-5(6H)-one]",IC50,[1],< 1000 nM
